Source: article PMC11097166, “Imidazole-Derived Alkyl and Aryl Ethers: Synthesis, Characterization, In Vitro Anticancer and Antioxidant Activities, Carbonic Anhydrase I–II Inhibition Properties, and In Silico Studies” (ACS Omega, 2024)

How the values were obtained:
[1] = tested on: C6 rat glial tumor cell line; experiment: MTT cell viability assay on C6; type: cell-based; details: 24 h incubation
Source text: (§1) 96-well plates were used for seeding cells. […] All compounds were run in three repetitions.

hCA I = hCA I (Homo sapiens, UniProt P00915); experiment: CA esterase activity method, hCA I; type: biochemical; details: Table S3; note: key: +: active; -: not effect
Sequence of hCA I (P00915 whole entry): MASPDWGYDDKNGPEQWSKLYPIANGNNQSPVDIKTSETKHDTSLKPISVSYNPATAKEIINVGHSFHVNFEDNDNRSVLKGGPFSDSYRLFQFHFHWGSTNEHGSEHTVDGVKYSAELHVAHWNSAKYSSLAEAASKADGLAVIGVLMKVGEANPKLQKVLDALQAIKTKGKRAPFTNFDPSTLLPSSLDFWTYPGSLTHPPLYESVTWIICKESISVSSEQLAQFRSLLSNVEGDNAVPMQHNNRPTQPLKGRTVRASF
Source text: (§2) The method used to spectrophotometrically detect the antiepileptic, antiglaucoma, and […] effects of the obtained compounds in vitro is the esterase activity method. This method relies on the esterase activity of CA for the hydrolysis of p-nitrophenyl acetate as a substrate, which is a part of the reaction mechanism involving p-nitrophenol or p-nitrophenolate.

FRAP antioxidant assay = details: trolox standard curve
Protocol: The FRAP method was used to determine the antioxidant power of compounds. This method, which determines the reducing power of compounds, was developed by Benzie and Strain.[48] Fe(III)–TPTZ complex is formed as a result of the reaction of Fe(III) with tripyridyltriazine (TPTZ), and this complex is reduced to the Fe(II)–TPTZ complex with the antioxidant in the environment. The color of this complex is dark blue and gives the maximum absorbance at 593 nm.[48] Incubation is performed for up to 30 min to complete the reaction, and the correct absorbance values were read. The FRAP values of the samples were calculated as “μmol trolox equiv/g sample” with the help of the standard curve obtained using methanol–trolox standard solutions (0; 0.2; 0.4; 0.6; 0.8; and 1.0 μmol/mL) which were used as the positive control.[49] […]

[2] = tested on: L929 mouse fibroblast cell line
Protocol: (§3) Human breast adenocarcinoma cell line (MCF7), rat glial tumor cell line (C6), healthy mouse fibroblast cell line (L929), and colon cancer (HT29) cell line were purchased from ATCC (American type culture collection) and studied.
(§4) The cytotoxic effects of all compounds by MTT analysis on L929, HT29, MCF7, and C6 cell lines were investigated. 96-well plates were used for seeding cells. Approximately 1 × 10^4 cells were seeded in each well. Cells were allowed to adhere for 24 h, and then the compounds were applied at different concentrations. All compounds were run in three repetitions. Wells with a maximum of 100 μM compounds were incubated for 24 h. Three wells without compounds treated with only DMSO (with total volume of % 0.5) were used as negative controls, and cisplatin was used as a positive control. […] After the MTT interaction, the FRAP wells were emptied, and DMSO solution was placed in them. The formazan crystals formed were dissolved with this solution, and the number of viable cells in each well was determined by color change.

[3] = tested on: L929 mouse fibroblast cell line; experiment: MTT cell viability assay on L929; details: read-out: IC50 L929; 24 h incubation, MTT
Protocol: as §3, §4

[4] = tested on: HT29 colon cancer cell line; experiment: MTT cell viability assay on HT29; type: cell-based, human; details: 24 h incubation
Source text: as §1

[5] = tested on: MCF7 human breast adenocarcinoma cell line; experiment: MTT cell viability assay on MCF7; type: cell-based; details: 24 h incubation
Source text: as §1

hCA II = hCA II (Homo sapiens, UniProt P00918); experiment: CA esterase activity method, hCA II; type: biochemical; details: Table S3; note: key: +: active; -: not effect
Source text: as §2

IC50 [1]: 43.8 ± 5.83 µM
Effect on hCA I isoenzyme activity (hCA I): +
IC50 [4]: 88.4 ± 15.7 µM
IC50 [5]: 101 ± 14.5 µM
Effect on hCA II isoenzyme activity (hCA II): +
Substance: 2-(1H-Imidazol-1-yl)-1-(4-methoxyphenyl)ethenol [Compound 4c]
FRAP (FRAP antioxidant assay): 0.29 ± 0.05 μmol trolox equiv/g
viability on healthy cell line at maximum dose [2]: at least 50%
IC50 [3]: 194 ± 12.2 µM
